In ChEMBL document CHEMBL1201862, “PubChem BioAssay data set” (2004):
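In this assay, cells in 96-well plates receive the compound at five concentrations for 48 hours. Endpoints are linearly interpolated between the surrounding concentrations. GI50 is the concentration that inhibits growth by half.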 Calls of active or inactive are those of the source. Rule as the data show it: active = GI50 up to about 1.1 µM and inactive = higher.

Columns and labels:
Assay in all cases: NCI anticancer screen, dose series, 48 h
HT-29 = test system: HT-29
K562 = test system: K562
RPMI-8226 = test system: RPMI-8226
SF-268 = test system: SF-268
SN12C = test system: SN12C
RXF 393 = test system: RXF 393
NCI-H226 = test system: NCI-H226
NCI/ADR-RES = test system: NCI/ADR-RES
ACHN = test system: ACHN
SK-MEL-28 = test system: SK-MEL-28
NCI-H522 = test system: NCI-H522
NCI-H460 = test system: NCI-H460
DU-145 = test system: DU-145
MOLT-4 = test system: MOLT-4
TK-10 = test system: TK-10
SR = test system: SR
HCT-15 = test system: HCT-15
OVCAR-8 = test system: OVCAR-8
CAKI-1 = test system: CAKI-1
HCT-116 = test system: HCT-116

SMILES | GI50 (HT-29) | GI50 (K562) | GI50 (RPMI-8226) | GI50 (SF-268) | GI50 (SN12C) | GI50 (RXF 393) | GI50 (NCI-H226) | GI50 (NCI/ADR-RES) | GI50 (ACHN) | GI50 (SK-MEL-28) | GI50 (NCI-H522) | GI50 (NCI-H460) | GI50 (DU-145) | GI50 (MOLT-4) | GI50 (TK-10) | GI50 (SR) | GI50 (HCT-15) [µM] | GI50 (OVCAR-8) | GI50 (CAKI-1) | GI50 (HCT-116)
Cc1nc2cccc(F)c2c(=O)n1-c1nnc(C2CC2)s1 | > 10 µM (inactive) | > 10 µM (inactive) | > 10 µM (inactive) | > 10 µM (inactive) | > 10 µM (inactive) | > 10 µM (inactive) | > 10 µM (inactive) | > 10 µM (inactive) | > 10 µM (inactive) | > 10 µM (inactive) | > 10 µM (inactive) | > 10 µM (inactive) | > 10 µM (inactive) | > 10 µM (inactive) | > 10 µM (inactive) | > 10 µM (inactive) | > 10 | > 10 µM (inactive) | > 10 µM (inactive) | > 10 µM (inactive)
CCOC(=O)/C=C/[C@H](O[Si](c1ccccc1)(c1ccccc1)c1ccccc1)C(C)(C)C | 7.03 µM (inactive) | 7.78 µM (inactive) | 3.44 µM (inactive) | > 31.6 µM (inactive) | > 31.6 µM (inactive) | 15.5 µM (inactive) | > 31.6 µM (inactive) | 28.5 µM (inactive) | > 31.6 µM (inactive) | > 10 µM (inactive) | > 31.5 µM (inactive) | > 10 µM (inactive) | > 31.6 µM (inactive) | 14.1 µM (inactive) | > 31.6 µM (inactive) | > 10 µM (inactive) | > 31.6 | > 31.6 µM (inactive) | 28.4 µM (inactive) | 22.5 µM (inactive)
C=C1C[C@H](O)[C@H](Br)C(C)(C)C12CCC(C)(Cl)C(Br)C2 (stereo not given in full) | 0.141 µM (active) | 2.44 µM (inactive) | 0.589 µM (active) | 6.87 µM (inactive) | 4.37 µM (inactive) | 1.95 µM (inactive) | 2.27 µM (inactive) | 4.58 µM (inactive) | 5.05 µM (inactive) | 7.74 µM (inactive) | 3.83 µM (inactive) | 1.69 µM (inactive) | 4.84 µM (inactive) | 0.451 µM (active) | 3.15 µM (inactive) | 2.19 µM (inactive) | 7.45 | 1.23 µM (inactive) | 5.09 µM (inactive) | 6.38 µM (inactive)
N#Cc1cccc(N2C(=O)C3C4C=CC(C3C2=O)C2C(=O)N(c3cccc(C#N)c3)C(=O)C42)c1 (stereo not given) | > 63.1 µM (inactive) | 46.9 µM (inactive) | > 56.2 µM (inactive) | 19.8 µM (inactive) | > 39.8 µM (inactive) | 10.2 µM (inactive) | 62.1 µM (inactive) | > 100 µM (inactive) | 40.7 µM (inactive) | > 63.1 µM (inactive) | 22.7 µM (inactive) | > 63.1 µM (inactive) | > 100 µM (inactive) | 41.8 µM (inactive) | 26.5 µM (inactive) | 37.6 µM (inactive) | > 63.1 | 37.8 µM (inactive) | 55.5 µM (inactive) | 21 µM (inactive)
CC1(C)C/C=C\CCC(O)C(O)CCC(C)(C)C1=O (stereo not given) | > 100 µM (inactive) | > 100 µM (inactive) | > 100 µM (inactive) | > 100 µM (inactive) | > 100 µM (inactive) | > 100 µM (inactive) | > 100 µM (inactive) | > 100 µM (inactive) | > 100 µM (inactive) | > 100 µM (inactive) | 62.2 µM (inactive) | > 100 µM (inactive) | > 100 µM (inactive) | > 100 µM (inactive) | > 100 µM (inactive) | > 100 µM (inactive) | > 100 | > 100 µM (inactive) | > 100 µM (inactive) | > 100 µM (inactive)
Cn1c2ccc3cc2c(=S)c2cc(ccc21)OCCOCCOCCOCCOCCO3 | > 10 µM (inactive) | > 10 µM (inactive) | > 10 µM (inactive) | > 10 µM (inactive) | > 10 µM (inactive) | > 10 µM (inactive) | > 10 µM (inactive) | > 10 µM (inactive) | > 10 µM (inactive) | > 10 µM (inactive) | > 10 µM (inactive) | > 10 µM (inactive) | > 10 µM (inactive) | > 10 µM (inactive) | > 10 µM (inactive) | > 10 µM (inactive) | > 10 | > 10 µM (inactive) | > 10 µM (inactive) | > 10 µM (inactive)
COc1ccc(-n2c(CCC(=O)O)nc3c2C(=O)c2ccccc2C3=O)cc1 | > 100 µM (inactive) | 71.3 µM (inactive) | > 100 µM (inactive) | > 100 µM (inactive) | > 100 µM (inactive) | > 100 µM (inactive) | > 100 µM (inactive) | > 100 µM (inactive) | > 100 µM (inactive) | > 100 µM (inactive) | 34.3 µM (inactive) | > 100 µM (inactive) | > 100 µM (inactive) | > 100 µM (inactive) | > 100 µM (inactive) | > 100 µM (inactive) | > 100 | > 100 µM (inactive) | > 100 µM (inactive) | 80.2 µM (inactive)
